The values that follow come from patent publication US20140350285A1, “NOVEL POLYMORPHS OF N-[2-AMINO-4-(4-FLUOROBENZYLAMINO)-PHENYL] CARBAMIC ACID ETHYL ESTER AND PROCESSES THEREOF” (SYMED LABS LIMITED, priority 2012, published 2014).

≈ marks a conversion by molar mass, not a printed value. A value given as a limit tells only on which side of the number the result lay.

A short description of data set [1]: Comparative solubility profile of crystalline forms in diluents.
Data set [2] in a line: Chemical and polymorphic stability under stability testing conditions. The data set is classed as physicochemical. Particulars: 25±2° C. and 75% RH, inert atmosphere.
Data set [3] in a line: Polymorphic stability on storage, analysed by XRPD. Type of data set: physicochemical. Particulars: stored at 25° C.±2° C., about 70% RH (result sentence: about 76% RH), 6 weeks.
[4] abbreviates: diluent: Solvent Methylene chloride.

Regarding `CCOC(=O)Nc1ccc(NCc2ccc(F)cc2)cc1N` [Modification-C, N-[2-amino-4-(4-fluorobenzylamino)-phenyl]carbamic acid ethyl ester], the Solubility – broadly, the dissolved amount per volume that the medium holds – in data set [1] (DMSO, organic solvent or mixture, Solubility, diluent: Solvent DMSO) was 700 mg/mL (≈ 2310 mM); in data set [1] (acetone, organic solvent or mixture, Solubility, diluent: Solvent Acetone), 310 mg/mL (≈ 1020 mM); in data set [1] (alcohol (96%), organic solvent or mixture, Solubility, diluent: Solvent Alcohol (96%)), 16 mg/mL (≈ 52.7 mM); in data set [1] (methylene chloride, organic solvent or mixture, Solubility, diluent: Solvent Methylene chloride), 50 mg/mL (≈ 165 mM); in data set [1] (pH buffer, pH 1.2, simulated gastric fluid, Solubility, diluent: pH Buffer 1.2 pH), 11 mg/mL (≈ 36.3 mM); in data set [1] (pH buffer, pH 4.5, aqueous buffer, Solubility, diluent: pH Buffer 4.5 pH), below 0.1 mg/mL. Moreover, the Solubility is below 0.1 mg/mL in data set [1] (pH buffer, pH 8.5, aqueous buffer, Solubility, diluent: pH Buffer 8.5 pH) and below 0.1 mg/mL in data set [1] (water, Solubility, diluent: Water).

With `CCOC(=O)Nc1ccc(NCc2ccc(F)cc2)cc1N` [Form-II, N-[2-amino-4-(4-fluorobenzylamino)-phenyl]carbamic acid ethyl ester], in data set [2], the “Chemical and polymorphic stability” value was “substantially stable chemically and polymorphically”. Besides, in data set [3], the “Polymorphic stability (XRPD)” value was “polymorphically stable”. Further, the “Solubility profile compared to known polymorphs (crystalline modifications A, B, and C)” value in data set [1] is listed as “better solubility profile”. Besides, the Solubility is listed as 250 mg/mL (≈ 824 mM) in data set [1] (diluent: Solvent Acetone); 24 mg/mL (≈ 79.1 mM) in data set [1] (diluent: Solvent Alcohol (96%)); 700 mg/mL (≈ 2310 mM) in data set [1] (diluent: Solvent DMSO); 70 mg/mL (≈ 231 mM) in data set [1] (setting [4]); below 0.1 mg/mL in data set [1] (diluent: Water); 10 mg/mL (≈ 33 mM) in data set [1] (diluent: pH Buffer 1.2 pH). Moreover, the Solubility in data set [1] (diluent: pH Buffer 4.5 pH) and in data set [1] (diluent: pH Buffer 8.5 pH) was below 0.1 mg/mL each time.

With `CCOC(=O)Nc1ccc(NCc2ccc(F)cc2)cc1N` [Modification-B, N-[2-amino-4-(4-fluorobenzylamino)-phenyl]carbamic acid ethyl ester], the Solubility is 280 mg/mL (≈ 923 mM) in data set [1] (diluent: Solvent Acetone); 22 mg/mL (≈ 72.5 mM) in data set [1] (diluent: Solvent Alcohol (96%)); 700 mg/mL (≈ 2310 mM) in data set [1] (diluent: Solvent DMSO); 80 mg/mL (≈ 264 mM) in data set [1] (setting [4]); below 0.1 mg/mL in data set [1] (diluent: Water); 10 mg/mL (≈ 33 mM) in data set [1] (diluent: pH Buffer 1.2 pH). For the same compound, the Solubility in data set [1] (diluent: pH Buffer 4.5 pH) and in data set [1] (diluent: pH Buffer 8.5 pH) was below 0.1 mg/mL each time.

Regarding `CCOC(=O)Nc1ccc(NCc2ccc(F)cc2)cc1N` [Modification-A, N-[2-amino-4-(4-fluorobenzylamino)-phenyl]carbamic acid ethyl ester], the Solubility in data set [1] (diluent: Solvent Acetone) is on record as 280 mg/mL (≈ 923 mM); in data set [1] (diluent: Solvent Alcohol (96%)) it was 23 mg/mL (≈ 75.8 mM); in data set [1] (diluent: Solvent DMSO), 800 mg/mL (≈ 2640 mM); in data set [1] (setting [4]), 50 mg/mL (≈ 165 mM); in data set [1] (diluent: Water) it was below 0.1 mg/mL; in data set [1] (diluent: pH Buffer 1.2 pH), 13 mg/mL (≈ 42.9 mM). The Solubility in data set [1] (diluent: pH Buffer 4.5 pH) and in data set [1] (diluent: pH Buffer 8.5 pH) was below 0.1 mg/mL throughout.

Turning to `CCOC(=O)Nc1ccc(NCc2ccc(F)cc2)cc1N` [Form-I, N-[2-amino-4-(4-fluorobenzylamino)-phenyl]carbamic acid ethyl ester], in data set [2], the “Chemical and polymorphic stability” value was “substantially stable chemically and polymorphically”. The “Polymorphic stability (XRPD)” value in data set [3] was “polymorphically stable”. Further, the “Solubility profile compared to known polymorphs (crystalline modifications A, B, and C)” value in data set [1] was “better solubility profile”. Further, the Solubility in data set [1] (diluent: Solvent Acetone) is 290 mg/mL (≈ 956 mM); in data set [1] (diluent: Solvent Alcohol (96%)), 25 mg/mL (≈ 82.4 mM); in data set [1] (diluent: Solvent DMSO), 700 mg/mL (≈ 2310 mM); in data set [1] (setting [4]) it was 40 mg/mL (≈ 132 mM); in data set [1] (diluent: Water), below 0.1 mg/mL; in data set [1] (diluent: pH Buffer 1.2 pH), 10 mg/mL (≈ 33 mM). Moreover, the Solubility in data set [1] (diluent: pH Buffer 4.5 pH) and in data set [1] (diluent: pH Buffer 8.5 pH) was below 0.1 mg/mL throughout.
